PMC4378623, “Plant membrane assays with cytokinin receptors underpin the unique role of free cytokinin bases as biologically active ligands” (Journal of Experimental Botany, 2015)

What was measured:
AHK3 [1] = target: T1, AHK3 (Arabidopsis thaliana, UniProt Q9C5U1); test: competition with [3H]tZ, plant microsomes; format: binding; parameters: full-length cDNA in pB7FWG2-AHK3, C-terminal eGFP fusion, transiently expressed in Nicotiana benthamiana leaves, microsomes; settings: pH 7.4, 0-4 °C
T1 sequence (Q9C5U1 1-1036): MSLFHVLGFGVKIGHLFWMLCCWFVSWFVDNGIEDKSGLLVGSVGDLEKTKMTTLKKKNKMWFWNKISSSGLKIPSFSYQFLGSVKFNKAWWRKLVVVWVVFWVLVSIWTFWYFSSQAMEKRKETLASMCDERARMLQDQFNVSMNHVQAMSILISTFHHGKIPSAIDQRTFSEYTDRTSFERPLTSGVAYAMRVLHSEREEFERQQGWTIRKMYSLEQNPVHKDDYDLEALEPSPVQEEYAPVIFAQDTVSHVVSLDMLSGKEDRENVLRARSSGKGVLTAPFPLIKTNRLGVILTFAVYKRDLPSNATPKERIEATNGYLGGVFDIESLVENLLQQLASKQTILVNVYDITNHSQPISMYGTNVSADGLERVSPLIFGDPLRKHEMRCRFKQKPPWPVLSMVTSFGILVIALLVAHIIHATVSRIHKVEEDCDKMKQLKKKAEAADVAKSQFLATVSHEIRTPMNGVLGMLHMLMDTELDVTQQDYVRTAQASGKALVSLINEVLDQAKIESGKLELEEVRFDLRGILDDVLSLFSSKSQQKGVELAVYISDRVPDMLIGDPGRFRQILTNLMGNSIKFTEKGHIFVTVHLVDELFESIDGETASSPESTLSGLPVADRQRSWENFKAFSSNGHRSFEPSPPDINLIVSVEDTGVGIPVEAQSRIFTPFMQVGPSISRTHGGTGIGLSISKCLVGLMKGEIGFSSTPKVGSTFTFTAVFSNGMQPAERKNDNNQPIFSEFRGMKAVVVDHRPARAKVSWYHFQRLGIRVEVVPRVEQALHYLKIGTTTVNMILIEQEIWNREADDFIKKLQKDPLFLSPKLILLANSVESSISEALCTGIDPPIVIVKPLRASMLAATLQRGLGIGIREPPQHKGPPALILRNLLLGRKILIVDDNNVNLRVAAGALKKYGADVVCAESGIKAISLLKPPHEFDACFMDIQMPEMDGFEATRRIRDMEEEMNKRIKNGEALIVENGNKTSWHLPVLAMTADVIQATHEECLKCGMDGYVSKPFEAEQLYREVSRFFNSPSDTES
Excerpt: competition with [3H]tZ, plant microsomes on AHK3

AHK2 [2] = target: T2, AHK2 (Arabidopsis thaliana, UniProt Q9C5U2); test: competition with [3H]tZ, plant microsomes; format: binding; settings: pH 7.4, 0-4 °C
T2 sequence (Q9C5U2 1-1176): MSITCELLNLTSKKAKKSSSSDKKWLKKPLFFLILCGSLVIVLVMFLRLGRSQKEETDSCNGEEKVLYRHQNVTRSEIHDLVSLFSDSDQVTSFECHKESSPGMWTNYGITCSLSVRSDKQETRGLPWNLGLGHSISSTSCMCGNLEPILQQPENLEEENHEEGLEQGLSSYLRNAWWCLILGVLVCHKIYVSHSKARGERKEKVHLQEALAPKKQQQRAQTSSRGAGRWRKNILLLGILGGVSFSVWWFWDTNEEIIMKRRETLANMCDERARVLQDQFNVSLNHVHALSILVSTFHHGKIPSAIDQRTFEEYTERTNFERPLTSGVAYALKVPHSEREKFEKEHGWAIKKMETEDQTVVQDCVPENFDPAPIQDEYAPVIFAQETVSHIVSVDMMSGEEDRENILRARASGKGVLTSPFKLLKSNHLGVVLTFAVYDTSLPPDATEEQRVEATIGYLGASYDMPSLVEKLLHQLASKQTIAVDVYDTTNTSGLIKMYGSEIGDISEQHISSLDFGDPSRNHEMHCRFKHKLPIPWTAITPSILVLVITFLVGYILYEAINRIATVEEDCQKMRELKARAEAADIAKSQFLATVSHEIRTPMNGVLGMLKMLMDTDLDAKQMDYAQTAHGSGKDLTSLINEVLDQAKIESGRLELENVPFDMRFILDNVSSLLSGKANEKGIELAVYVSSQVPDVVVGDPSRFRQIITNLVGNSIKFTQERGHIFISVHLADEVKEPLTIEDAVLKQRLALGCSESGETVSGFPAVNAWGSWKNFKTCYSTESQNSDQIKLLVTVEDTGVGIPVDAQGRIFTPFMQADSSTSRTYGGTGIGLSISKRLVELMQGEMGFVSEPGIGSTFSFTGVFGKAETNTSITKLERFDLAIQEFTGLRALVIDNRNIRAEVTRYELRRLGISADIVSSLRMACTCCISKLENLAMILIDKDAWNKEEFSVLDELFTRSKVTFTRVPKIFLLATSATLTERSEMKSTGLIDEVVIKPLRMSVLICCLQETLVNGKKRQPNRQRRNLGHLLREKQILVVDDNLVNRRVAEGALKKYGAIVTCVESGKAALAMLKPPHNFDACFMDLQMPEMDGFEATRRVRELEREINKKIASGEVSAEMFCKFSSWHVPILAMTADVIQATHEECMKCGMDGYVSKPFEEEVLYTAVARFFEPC
Excerpt: competition with [3H]tZ, plant microsomes on AHK2

ZmHK1 [3] = target: T3, ZmHK1 (Zea mays, UniProt Q9FRY7); test: competition with [3H]tZ, plant microsomes; format: binding; parameters: full-length coding region in pB7FWG2-ZmHK1, C-terminal eGFP fusion, transiently expressed in Nicotiana benthamiana leaves, microsomes; settings: pH 7.4, 0-4 °C
T3 sequence (Q9FRY7 1-974): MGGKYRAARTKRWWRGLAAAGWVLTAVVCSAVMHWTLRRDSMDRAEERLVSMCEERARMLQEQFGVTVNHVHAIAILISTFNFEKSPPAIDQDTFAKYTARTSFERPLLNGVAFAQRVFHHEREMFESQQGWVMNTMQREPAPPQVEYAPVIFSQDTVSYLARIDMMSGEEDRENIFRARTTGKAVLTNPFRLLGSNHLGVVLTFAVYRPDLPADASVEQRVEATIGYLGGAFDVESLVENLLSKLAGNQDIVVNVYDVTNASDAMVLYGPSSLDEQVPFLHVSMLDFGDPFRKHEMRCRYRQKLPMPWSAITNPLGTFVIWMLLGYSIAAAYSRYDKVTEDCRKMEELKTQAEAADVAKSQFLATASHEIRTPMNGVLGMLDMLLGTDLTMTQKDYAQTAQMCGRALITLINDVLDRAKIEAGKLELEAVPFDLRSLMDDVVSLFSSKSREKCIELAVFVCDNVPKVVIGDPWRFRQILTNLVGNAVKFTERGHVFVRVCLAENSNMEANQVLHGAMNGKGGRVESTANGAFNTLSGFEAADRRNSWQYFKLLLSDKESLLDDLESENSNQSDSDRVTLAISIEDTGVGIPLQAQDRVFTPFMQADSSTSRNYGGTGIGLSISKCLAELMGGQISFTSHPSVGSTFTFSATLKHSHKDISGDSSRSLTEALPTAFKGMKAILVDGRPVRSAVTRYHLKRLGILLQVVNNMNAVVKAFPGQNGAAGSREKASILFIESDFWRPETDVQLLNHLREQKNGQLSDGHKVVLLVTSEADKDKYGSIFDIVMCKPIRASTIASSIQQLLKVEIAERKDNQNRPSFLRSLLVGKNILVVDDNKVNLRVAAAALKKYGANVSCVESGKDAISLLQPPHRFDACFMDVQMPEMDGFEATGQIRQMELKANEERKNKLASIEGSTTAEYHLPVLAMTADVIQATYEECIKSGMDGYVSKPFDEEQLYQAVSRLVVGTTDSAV

AHK3 [4] = target: T1, AHK3; test: biochemical
Excerpt: [3H]tZ saturation binding to plant microsomes, Scatchard on AHK3

AHK2 [5] = target: T2, AHK2; test: biochemical
Excerpt: [3H]tZ saturation binding to plant microsomes, Scatchard on AHK2

AHK4 = AHK4 (Arabidopsis thaliana, UniProt Q9C5U0); test: biochemical
ZmHK1 [6] = target: T3, ZmHK1; test: biochemical
Excerpt: [3H]tZ saturation binding to plant microsomes, Scatchard on ZmHK1

Sequence of AHK4 (Q9C5U0 whole entry): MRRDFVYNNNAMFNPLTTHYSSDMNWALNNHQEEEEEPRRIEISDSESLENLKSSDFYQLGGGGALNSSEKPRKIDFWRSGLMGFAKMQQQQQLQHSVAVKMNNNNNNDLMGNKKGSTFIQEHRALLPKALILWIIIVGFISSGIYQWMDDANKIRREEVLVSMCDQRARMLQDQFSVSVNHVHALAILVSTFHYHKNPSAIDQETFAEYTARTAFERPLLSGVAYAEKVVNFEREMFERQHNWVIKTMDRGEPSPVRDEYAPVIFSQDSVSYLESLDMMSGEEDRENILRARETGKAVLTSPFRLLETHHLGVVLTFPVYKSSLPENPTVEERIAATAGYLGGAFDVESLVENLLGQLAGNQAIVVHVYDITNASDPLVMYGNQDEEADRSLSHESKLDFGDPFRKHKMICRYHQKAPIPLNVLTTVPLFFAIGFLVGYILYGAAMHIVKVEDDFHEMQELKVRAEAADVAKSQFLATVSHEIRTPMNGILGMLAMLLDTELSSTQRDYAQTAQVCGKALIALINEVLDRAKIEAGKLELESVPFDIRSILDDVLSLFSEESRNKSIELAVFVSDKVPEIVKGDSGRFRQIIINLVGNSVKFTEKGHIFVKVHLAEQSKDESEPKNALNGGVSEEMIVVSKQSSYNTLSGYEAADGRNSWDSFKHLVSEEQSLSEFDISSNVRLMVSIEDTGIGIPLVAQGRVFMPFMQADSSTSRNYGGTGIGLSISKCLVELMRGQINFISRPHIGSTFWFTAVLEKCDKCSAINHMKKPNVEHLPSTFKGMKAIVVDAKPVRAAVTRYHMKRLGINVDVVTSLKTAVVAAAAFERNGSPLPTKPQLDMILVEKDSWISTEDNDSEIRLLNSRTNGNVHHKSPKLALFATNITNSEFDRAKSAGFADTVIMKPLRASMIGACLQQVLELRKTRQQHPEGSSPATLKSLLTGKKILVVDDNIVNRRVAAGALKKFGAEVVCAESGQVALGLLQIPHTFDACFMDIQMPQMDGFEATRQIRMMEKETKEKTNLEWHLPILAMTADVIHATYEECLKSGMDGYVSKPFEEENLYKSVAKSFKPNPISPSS

Kd (AHK3 [1]) [nM] | Kd (AHK2 [2]) [nM] | Kd (ZmHK1 [3]) [nM] | Kd (AHK3 [4]) [nM] | Kd (AHK2 [5]) [nM] | Kd (AHK4) [nM] | Kd (ZmHK1 [6]) [nM] | SMILES
> 10000 |  |  |  |  |  |  | Nc1ncnc2nc[nH]c12 [Ade, adenine]
33.1 ± 6.2 | 161 ± 55 | 128 ± 47 |  |  |  |  | C[C@H](CO)CCNc1ncnc2nc[nH]c12 [DZ, dihydrozeatin]
42 ± 13.5 | 1.42 ± 0.52 | 0.61 ± 0.27 |  |  |  |  | CC(C)=CCNc1ncnc2nc[nH]c12 [iP, isopentenyladenine]
 |  |  | 4.26 ± 1.69 | 1.93 ± 0.26 | 2 to 8 | 7.97 ± 1.96 | C/C(=C\CNc1ncnc2[nH]cnc12)CO [tZ, trans-zeatin]
